Laboratory results published in US9932637B2, “Genetic polymorphisms associated with cardiovascular disorders and drug response, methods of detection and uses thereof” (CELERA CORPORATION, priority 2003, dated 2018).

Tested on: patients with prior myocardial infarction (CARE study)
Test: CARE: association of SNPs with pravastatin treatment in cardiovascular events prevention (logistic regression, odds ratio pravastatin vs placebo by genotype; Table 8)
Format: in vivo, human
Details: for Definite Nonfatal MI, n/total (%) / Fatal CHD/Definite Nonfatal MI, n/total (%): CD6 hCV25922320, All Patients; for Fatal/Nonfatal MI (def & prob), n/total (%) / MI (Fatal/Nonfatal), n/total (%) / Nonfatal MI (def & prob), n/total (%): COL11A1 hCV8400671, All Patients
From the text: In order to identify genetic markers associated with acute coronary events (e.g. MI, stroke, unstable angina, congestive heart failure, etc.) or response to statin treatment for the prevention of coronary events, samples from the Cholesterol and Recurrent Events (CARE) study (a randomized multicentral double-blinded trial on secondary prevention of acute coronary events with pravastatin) (Sacks et al., 1991, Am. J. Cardiol. 68: 1436-1446) were genotyped. A well-documented myocardial infarction (MI) was one of the enrollment criteria for entry into the CARE study. Patients were enrolled in the CARE trial from 80 participating study centers. […] Patients were randomized to receive either 40 mg of pravastatin once daily or a matching placebo. The primary endpoint of the trial was death from coronary heart disease and the median duration of follow-up was 5.0 years (range, 4.0 to 6.2 years). […] Secondary endpoints of other related cardiovascular or metabolic disease events, and changes in clinical variables were also recorded in pravastatin-treated and placebo groups. All individuals included in the study had signed a written informed consent form and the study protocol was approved by the respective Institutional Review Boards (IRBs).
For genotyping SNPs in CARE patient samples, DNA was extracted from blood samples using conventional DNA extraction methods such as the QIA-amp kit from Qiagen. Genotypes were obtained on an ABI PRISM® 7900HT Sequence Detection PCR system (Applied Biosystems, Foster City, Calif.) by kinetic allele-specific PCR, similar to the method described by Germer et al. (Germer S., Holland M. J., Higuchi R. 2000, Genome Res. 10: 258-266).
Statistical analysis for association of SNPs with pravastatin treatment in cardiovascular events prevention (Table 8) was carried out using an overall logistic regression model that included an intercept, a parameter for the effect of a genotype containing two rare alleles versus a genotype containing no rare alleles, a parameter for the effect of a genotype containing one rare allele versus a genotype containing no rare alleles, a parameter for the effect of use of pravastatin versus the use of placebo, and parameters for the interaction effects between SNP genotypes and pravastatin use. The test of the overall model is a chi-square test with two degrees of freedom for analyses containing all three genotypes, and one degree of freedom for analyses containing two genotypes.
Effect sizes were estimated through odds ratios (pravastatin group versus placebo) for carriers of each genotype (groups of 0, 1, and 2 minor allele carriers). The effect was considered to be significant if p-value for testing whether any of the interactions between SNP genotypes and pravastatin use were <0.05. […] Odds ratios less than one indicate that the specific SNP allele has a protective effect and odds ratios greater than one indicate that the specific SNP allele has an adverse effect.

[1] = CCL11 hCV7449808, All Patients, 2 Rare Alleles, Prava, n/total 9/34
[2] = CCL11 hCV7449808, All Patients, Fatal/Non-fatal Atherosclerotic CV Disease
[3] = CCL11 hCV7449808, All Patients, Hosp. for Cardiovascular Disease
[4] = CCL11 hCV7449808, All Patients, Total Cardiovascular Disease Events
[5] = CCL11 hCV7449808, All Patients, Total Coronary Heart Disease Events
[6] = CD6 hCV2553030, All Patients, 0 Rare Alleles, Prava arm
[7] = CD6 hCV2553030, All Patients, 1 Rare Allele, Prava arm
[8] = CD6 hCV2553030, All Patients, 2 Rare Alleles, Prava arm
[9] = CHUK hCV1345898, All Patients, Hosp. for Unstable Angina
[10] = CHUK hCV1345898, All Patients, Non-fatal MI (def & prob)

SMILES: CC[C@H](C)C(=O)O[C@H]1C[C@H](O)C=C2C=C[C@H](C)[C@H](CC[C@@H](O)C[C@@H](O)CC(=O)O)[C@H]21 [pravastatin]
- Total Coronary Heart Disease Events, n/total (%) (CCL11 hCV7449808, All Patients, 2 Rare Alleles, Prava, n/total 4/34): (11.8%)
- Fatal/Non-fatal Atherosclerotic CV Disease, n/total (%) (CCL11 hCV7449808, All Patients, 2 Rare Alleles, Prava, n/total 7/34): (20.6%)
- Hosp. for Cardiovascular Disease, n/total (%) [1]: (26.5%)
- Total Cardiovascular Disease Events, n/total (%) [1]: (26.5%)
- Prava vs. Placebo Odds Ratio, 0 Rare Alleles [2]: 0.80
- Prava vs. Placebo Odds Ratio, 1 Rare Alleles [2]: 0.82
- Prava vs. Placebo Odds Ratio, 2 Rare Alleles [2]: 0.21
- Prava vs. Placebo Odds Ratio, 0 Rare Alleles [3]: 0.76
- Prava vs. Placebo Odds Ratio, 1 Rare Alleles [3]: 0.91
- Prava vs. Placebo Odds Ratio, 2 Rare Alleles [3]: 0.16
- Prava vs. Placebo Odds Ratio, 0 Rare Alleles [4]: 0.77
- Prava vs. Placebo Odds Ratio, 1 Rare Alleles [4]: 0.88
- Prava vs. Placebo Odds Ratio, 2 Rare Alleles [4]: 0.14
- Prava vs. Placebo Odds Ratio, 0 Rare Alleles [5]: 0.80
- Prava vs. Placebo Odds Ratio, 1 Rare Alleles [5]: 0.84
- Prava vs. Placebo Odds Ratio, 2 Rare Alleles [5]: 0.16
- Hosp. for Cardiovascular Disease, n/total (%) [6]: (41.5%)
- Total Cardiovascular Disease Events, n/total (%) [6]: (43.2%)
- Hosp. for Cardiovascular Disease, n/total (%) [7]: (39.9%)
- Total Cardiovascular Disease Events, n/total (%) [7]: (40.3%)
- Hosp. for Cardiovascular Disease, n/total (%) [8]: (31.3%)
- Total Cardiovascular Disease Events, n/total (%) [8]: (33.0%)
- Odds ratio pravastatin vs placebo (CD6 hCV2553030, All Patients, Hosp. for Cardiovascular Disease, 0 rare alleles): 0.81
- Odds ratio pravastatin vs placebo (CD6 hCV2553030, All Patients, Hosp. for Cardiovascular Disease, 1 rare allele): 0.78
- Odds ratio pravastatin vs placebo (CD6 hCV2553030, All Patients, Hosp. for Cardiovascular Disease, 2 rare alleles): 0.37
- Odds ratio pravastatin vs placebo (CD6 hCV2553030, All Patients, Total Cardiovascular Disease Events, 0 rare alleles): 0.83
- Odds ratio pravastatin vs placebo (CD6 hCV2553030, All Patients, Total Cardiovascular Disease Events, 1 rare allele): 0.74
- Odds ratio pravastatin vs placebo (CD6 hCV2553030, All Patients, Total Cardiovascular Disease Events, 2 rare alleles): 0.38
- Definite Nonfatal MI, n/total (%) (0 Rare Alleles, Prava arm): (5.7%)
- Fatal CHD/Definite Nonfatal MI, n/total (%) (0 Rare Alleles, Prava arm): (7.7%)
- Definite Nonfatal MI, n/total (%) (1 Rare Allele, Prava arm): (9.2%)
- Fatal CHD/Definite Nonfatal MI, n/total (%) (1 Rare Allele, Prava arm): (12.3%)
- Definite Nonfatal MI, n/total (%) (2 Rare Alleles, Prava arm): (4.8%)
- Fatal CHD/Definite Nonfatal MI, n/total (%) (2 Rare Alleles, Prava arm): (9.7%)
- Odds ratio pravastatin vs placebo (CD6 hCV25922320, All Patients, Definite Nonfatal MI, 0 rare alleles): 0.52
- Odds ratio pravastatin vs placebo (CD6 hCV25922320, All Patients, Definite Nonfatal MI, 1 rare allele): 1.12
- Odds ratio pravastatin vs placebo (CD6 hCV25922320, All Patients, Definite Nonfatal MI, 2 rare alleles): 0.63
- Odds ratio pravastatin vs placebo (CD6 hCV25922320, All Patients, Fatal CHD/Definite Nonfatal MI, 2 rare alleles): 0.92
- Non-fatal MI (def & prob), n/total (%) (CHUK hCV1345898, All Patients, 0 Rare Alleles, Prava, n/total 47/413): (11.4%)
- Hosp. for Unstable Angina, n/total (%) (CHUK hCV1345898, All Patients, 0 Rare Alleles, Prava, n/total 68/413): (16.5%)
- Non-fatal MI (def & prob), n/total (%) (CHUK hCV1345898, All Patients, 1 Rare Allele, Prava, n/total 69/734): (9.4%)
- Hosp. for Unstable Angina, n/total (%) (CHUK hCV1345898, All Patients, 1 Rare Allele, Prava, n/total 110/734): (15.0%)
- Non-fatal MI (def & prob), n/total (%) (CHUK hCV1345898, All Patients, 2 Rare Alleles, Prava, n/total 17/354): (4.8%)
- Hosp. for Unstable Angina, n/total (%) (CHUK hCV1345898, All Patients, 2 Rare Alleles, Prava, n/total 51/354): (14.4%)
- Prava vs. Placebo Odds Ratio, 0 Rare Alleles [9]: 1.38
- Prava vs. Placebo Odds Ratio, 1 Rare Alleles [9]: 0.76
- Prava vs. Placebo Odds Ratio, 2 Rare Alleles [9]: 0.59
- Prava vs. Placebo Odds Ratio, 0 Rare Alleles [10]: 0.86
- Prava vs. Placebo Odds Ratio, 1 Rare Alleles [10]: 0.77
- Prava vs. Placebo Odds Ratio, 2 Rare Alleles [10]: 0.34
- Fatal/Nonfatal MI (def & prob), n/total (%) (0 Rare Alleles, Prava arm): (10.6%)
- MI (Fatal/Nonfatal), n/total (%) (0 Rare Alleles, Prava arm): (10.7%)
- Nonfatal MI (def & prob), n/total (%) (0 Rare Alleles, Prava arm): (9.6%)
- Fatal/Nonfatal MI (def & prob), n/total (%) (1 Rare Allele, Prava arm): (8.2%)
- MI (Fatal/Nonfatal), n/total (%) (1 Rare Allele, Prava arm): (8.6%)
- Nonfatal MI (def & prob), n/total (%) (1 Rare Allele, Prava arm): (7.7%)
- Fatal/Nonfatal MI (def & prob), n/total (%) (2 Rare Alleles, Prava arm): (4.1%)
- MI (Fatal/Nonfatal), n/total (%) (2 Rare Alleles, Prava arm): (4.1%)
